In PubChem BioAssay (NCI) one finds GI50 and TGI data, which are given here for 14 compounds.

The structures appear in SMILES notation. “And” between values parts separate entries of the source, which are not always exact repeats. Equal values may be shown once.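 Briefly, cells in 96-well plates were exposed to five compound concentrations for 48 h, and endpoints were estimated by linear interpolation. Here, GI50 denotes the concentration required for 50% inhibition of growth. TGI denotes the concentration required for complete inhibition of growth.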

Holding throughout (assay): NCI-60 cell line screen, 48 h
The subject of assay [1] is 786-0 renal.
Assay [2] concerns HCC-2998 colon.
Assay [3] has as its system M14 melanoma.
The test system of assay [4] is K-562 leukemia.
In assay [5] the test system is SW-620 colon.
For assay [6], the system named is LOX IMVI melanoma.
Assay [7] deals with MDA-MB-435.
Assay [8] concerns COLO 205 colon.
For assay [9], the system named is DU-145 prostate.
Assay [10] relates to HL-60(TB) leukemia.

Turning to `Cn1c2c(c3c(Cl)nncc31)Cc1ccccc1-2`, the GI50 in assay [1] is 23.6 µM; in assay [2] it was 20.9 µM; in assay [3] it was 28100 nM; in [4] it was 25.9 µM; in assay [5] it was 17.9 µM; in [6] it was 20.9 µM. In addition, the GI50 in assay [7] is 29.7 µM; in [8] it was 15.3 µM; in assay [9] it was 6.4 µM. For the same compound, the TGI in assay [1], in assay [2], in [3], in assay [4], in assay [5] and in assay [6] was greater than 100 µM throughout. Also, the TGI in assay [7] is greater than 100 µM; in [8], 50.2 µM; in assay [9], 41 µM.
As to `C/C(=C(\c1ccc(OCCN2CCCCCC2)cc1)c1ccc(OC(=O)c2ccccc2)cc1)c1ccc(Cl)cc1`, the GI50 in assay [1] was 3.58 µM; in assay [2] it was 2.36 µM; in assay [3] it was 920 nM; in assay [4] it was 1.31 µM; in [5], 4.04 µM; in assay [10], 3.35 µM. Moreover, the GI50 in [6] was 2.43 µM; in assay [7], 4.24 µM; in [8] it was 2.31 µM; in assay [9], 5.41 µM. Also, the TGI in [1] is 7.73 µM; in assay [2], 7.03 µM; in assay [3] it was 3.33 µM; in assay [4], 33.3 µM; in [5], 9.42 µM; in assay [10], 11.5 µM. The TGI in [6] came to 6.81 µM; in assay [7], 8.87 µM; in [8] it was 7.76 µM; in assay [9], 11.3 µM.
Take `CC[C@@H](C)/C=C(C)/C=C/C(=O)c1c(O)c(-c2ccc(O)cc2)cn(O)c1=O`: the GI50 is 0.361 µM in assay [1]; 2.31 µM in [2]; 284 nM in assay [3]; 0.392 µM in [4]; 0.55 µM in assay [5]; 0.27 µM in assay [10]. The GI50 was 0.288 µM in assay [6], 0.468 µM in assay [7], 7.19 µM in assay [8] and 0.496 µM in [9]. In addition, the TGI in assay [1] is 5.17 µM; in assay [2] it was 13.1 µM; in [3], 13.2 µM; in assay [4] it was greater than 41.2 µM; in assay [5], 14 µM; in assay [10], 13.5 µM. In addition, the TGI in assay [6] is 7.64 µM; in assay [7], 17.5 µM; in assay [8] it was 20.6 µM; in assay [9], 13.8 µM.
Regarding `CC(C)CCCCCCCCCCCCC(=O)NCC(=O)NC1C(O)C(O)C(Nc2ncnc3nc[nH]c23)OC1C(O)CO` (stereo not given), the TGI is 0.526 µM in [1]; 0.412 µM and 3.94 µM in assay [4]; 0.00316 µM and 0.00155 µM and 0.00526 µM in assay [8]. Moreover, the GI50 in [2] is less than 1e-05 µM; in [3] it was less than 0.01 nM; in assay [4], 0.00331 µM and 0.0128 µM; in assay [5], 0.000756 µM and 0.005 µM; in [7], less than 1e-05 µM; in assay [9] it was less than 1e-05 µM.
Consider `O=C(NCC1CCCO1)c1ccc(NC2=C(Cl)C(=O)N(Cc3ccccc3)C2=O)cc1` (stereo not given), for which the GI50 was 15.2 µM in assay [1]; 13.1 µM in assay [2]; 11200 nM in assay [3]; 11.1 µM in assay [4]; 5.95 µM in assay [5]; 9.25 µM in assay [10]. The GI50 in [6] was 24.5 µM; in [7], 9.33 µM; in [8], 23 µM; in assay [9] it was 12.3 µM. Moreover, the TGI in [1] amounted to 28.6 µM; in assay [2], 27.1 µM; in [3], 23.4 µM; in assay [4], 34.3 µM; in [5], 42.8 µM; in assay [10] it was 25 µM. Also, the TGI in assay [6] is greater than 100 µM; in [7] it was 21.7 µM; in assay [8], 71.9 µM; in assay [9], 30 µM.
`CC1(C)CCCC(C)(C2CCC3(C)C2C(O)CC2C4(C)CCC(O)C(C)(C)C4CCC23C)O1` (stereo not given): the TGI in assay [1], in assay [2], in assay [3], in [4], in assay [5] and in [10] was greater than 100 µM in each case. For the same compound, the TGI in [6], in assay [7], in assay [8] and in assay [9] was greater than 100 µM in each case.
For `COc1cc(C(=O)c2cnc(-c3cccc4[nH]ccc34)[nH]2)cc(OC)c1OC`, the TGI was greater than 100 µM in assay [1]; 59.3 µM in [2]; 42.3 µM in assay [4]; greater than 100 µM in assay [5]; less than 0.01 µM in assay [10]; greater than 100 µM in [6]. Moreover, the TGI was less than 0.01 µM in assay [8] and greater than 100 µM in [9]. For the same compound, the GI50 is 50.5 nM and < 10 nM in assay [3]; 0.0386 µM and < 0.01 µM in [4]; less than 0.01 µM in [10]; 0.0282 µM in [7]; 0.0996 µM and < 0.01 µM in assay [9].
On to `CCCCCCCCCCCCOC1C(CNC(=O)C2OC3OC(C)(C)OC3C2NC(=O)CN2CCN(c3ccc(OC)cc3)CC2)OC2OC(C)(C)OC21` (stereo not given), for which the GI50 in assay [1] was 11.8 µM; in assay [2], 3.4 µM; in assay [3], 4730 nM; in assay [4], 3.31 µM; in assay [5], 3.75 µM; in assay [10] it was 2.13 µM. Moreover, the GI50 in [6] was 3.71 µM; in assay [7], 5.12 µM; in [8] it was 2.26 µM; in assay [9], 4.56 µM. Moreover, the TGI in assay [1] was found to be 24 µM; in [2] it was 11 µM; in [3], 18.9 µM; in assay [4], 11.2 µM; in assay [5] it was 28.3 µM; in assay [10] it was 4.44 µM. Further, the TGI in [6] is 12.3 µM; in [7], 17.7 µM; in assay [8], 4.82 µM; in assay [9] it was 15.6 µM.
Take `CCOP(=O)(OCC)C(C(=O)OC)C(=O)C(=O)Nc1cccc(O)c1` (stereo not given): the TGI in [1], in [2], in assay [3], in assay [5], in assay [6] and in assay [7] was greater than 100 µM in each case. Further, the TGI in [8] and in assay [9] was greater than 100 µM throughout.
In the case of `O=C(O)C1[O][Sb][O]C(C(=O)O)C1O` (stereo not given), the GI50 in [1] was greater than 100 µM; in assay [3], greater than 100000 nM; in assay [4], greater than 100 µM; in [5] it was greater than 100 µM; in assay [6] it was greater than 100 µM; in [7], greater than 100 µM. Moreover, in assay [9], the GI50 was greater than 100 µM. Besides, the TGI in [1], in assay [3], in assay [4], in assay [5], in assay [6] and in assay [7] was greater than 100 µM each time. Also, the TGI in assay [9] was greater than 100 µM.
Take `Cc1cc(C)c(-c2c(N)cc(Br)cc2Br)c(N)c1`: the GI50 in [1] is 7.75 µM; in [2] it was 10.9 µM; in [3], 4400 nM; in assay [5], 3.93 µM; in assay [6] it was 5.21 µM; in assay [7], 2.29 µM. The GI50 in assay [8] is 4.93 µM; in assay [9], 4.33 µM. For the same compound, the TGI in assay [1] worked out at 21.6 µM; in assay [2], 23.1 µM; in [3], 15.7 µM; in assay [5], 16 µM; in [6] it was 18 µM; in assay [7], 7.37 µM. For the same compound, the results for the TGI in assay [8] and in assay [9] were 15.6 µM and 16.4 µM, respectively.
Take `NS(=O)(=O)c1cc(C(=O)O)c(O)c2ccccc12`: the TGI in assay [1], in assay [3], in assay [4], in [5], in [10] and in [6] was greater than 100 µM in each case. Also, the TGI in [7], in [8] and in assay [9] was greater than 100 µM each time.
Regarding `COc1ccc([C@@]23Oc4cc(OC)cc(OC)c4[C@]2(O)[C@H](O)[C@H](C(N)=O)[C@H]3c2ccccc2)cc1`, the results for the GI50 in [1] and in assay [10] were 0.018 µM and less than 0.01 µM, respectively. In addition, the TGI in assay [1] is 0.291 µM; in [2], 0.0697 µM and 0.0194 µM; in assay [3], 0.0233 µM and < 0.01 µM; in assay [4] it was greater than 100 µM; in assay [10], 0.0785 µM; in [7], 0.0793 µM and 0.631 µM. Besides, the TGI in assay [8] is 0.0286 µM and 0.0116 µM; in assay [9], 0.105 µM and < 0.0219 µM.
Regarding `O=C1c2ccccc2-c2c1c1ccccc1c(=O)n2CCCNCCn1c2c(c3ccccc3c1=O)C(=O)c1ccccc1-2`, the GI50 is 1.98 µM in assay [1]; 2800 nM in assay [3]; 19.2 µM in assay [4]; 2.23 µM in [5]; 34.6 µM in assay [10]; 0.0855 µM in [6]. The GI50 is 2.24 µM in [7], 36.2 µM in [8] and 1.89 µM in [9]. The TGI in assay [1] is 9.64 µM; in assay [3] it was 10.9 µM; in [4], 42.3 µM; in assay [5] it was greater than 100 µM; in assay [10] it was 96.8 µM; in assay [6] it was 3.16 µM. For the same compound, the TGI in assay [7] was 6.11 µM; in assay [8], greater than 100 µM; in assay [9] it was 12 µM.
